Test results as given in US6706745B1, “Biphenylamidine derivatives” (Teijin Limited, priority 1997, dated 2004).
Counter-ions that a name gives are not always drawn.

How the values were obtained:
[1] = target: T1, human acetylcholine esterase (Homo sapiens, UniProt P22303); assay: Determination of acetylcholine esterase (AChE) inhibiting activity; format: biochemical; settings: read-out: AChE inhibition activity IC50
T1 construct: purchased Sigma C-5400
Description: (4) Determination of Acetylcholine Esterase (AChE) Inhibiting Activity
The substance for analysis was dissolved in distilled water as specimen. To 50 μL of the specimen serially diluted, 50 μL of enzyme solution, wherein human acetylcholine esterase (manufactured by Sigma, C-5400) had been dissolved in distilled water at 0.1 U/mL was added. To this solution, 50 μL of the solution which was prepared by dissolving 5,5′-dithiobis (manufactured by Nacarai Tesque, 141-01) in phosphate buffer (0.1M NaH2PO4—Na2HPO4, pH 7.0) at 0.5 mM is,added and mixed, and reacted with 50 μL of the solution wherein acetylthiocholine iodide (Wako Company, 017-09313) had been dissolved in phosphate buffer at 3 mM, at room temperature. As a control distilled water was added instead of the substance for analysis and the absorbance (A450) was determined over time. As a blank, phosphate buffer was added instead of the enzyme solution and the 50% inhibition activity (IC50),was determined.

[2] = Determination of bioavailability (BA) in mouse; format: in vivo; settings: fasted male ICR mice; oral 10 mg/kg vs intravenous 3 mg/kg; from plasma AUC
Description: (5) Determination of Bioavailability (BA):
The substance for analysis was dissolved in distilled water (for oral administration; 10 mg/kg) or physiological salt solution (for intravenous administration; 3 mg/kg) to prepare a solution for administration. This solution was administered to fasted ICR mice (male, 6 weeks aged), the whole blood was extracted from the heart under ether anesthesia at 5 min. (intravenous administration group only), 15 min., 30 min., 1 hr., 2 hr. and 4 hr. after the administration, and the plasma was separated by the centrifugation (3,500 rpm, 30 min., 4° C.) to produce the specimen (n=4). Using the above method for determining FXa inhibiting activity, the calibration curve for the substance for analysis was previously prepared and the concentration of the substance for analysis in the specimen was determined. The lower area of the concentration in plasma—time curve (AUC) was calculated and then the bioavailavility in the mouse (BA) was calculated according to the following formula: [formula]

human FXa = human FXa (Homo sapiens, UniProt P00742); assay: Determination of inhibiting activity of activated blood coagulation factor X (FXa), chromogenic substrate S-2765; format: biochemical; settings: substrate S-2765, 30 min incubation, A405, read-out: Fxa inhibition activity IC50
Description: (1) Determination of Inhibiting Activity of Activated Blood Coagulation Factor X (FXa):
The substance for analysis was dissolved in water or water wherein a suitable concentration of organic solvents (DMSO ethanol or .methanol) had been added, as a specimen. To 70 μL of the specimen serially diluted with water, 90 μL of 100 mM Tris buffer (pH 8.4), 20 μL of 50 mM Tris buffer (pH 8.4) containing 50 mU/mL human FXa, and 2 mM substrate (Daiichi Chemical S-2765) were added and incubated for 30 min., 50 μL of 50% acetic acid was added, and the absorbance (A405) were determined. As a blank, Tris buffer was added instead of FXa while, as a control, water was added instead of the specimen. The 50% inhibition activity (IC50) was determined as the indication of FXa inhibiting activity.

human thrombin = target: T2, human thrombin (Homo sapiens, UniProt P00734); assay: Determination of thrombin inhibiting activity, chromogenic substrate S-2238; format: biochemical; settings: substrate S-2238, 30 min incubation, A405, read-out: Thrombin inhibition activity IC50
T2 construct: 1 U/mL human thrombin
Description: (2) Determination of Thrombin Inhibiting Activity:
To 70 μL of the specimen serially diluted with water, 90 μL of 100 mM Tris buffer (pH 8.4), 20 μL of 50 mM Tris buffer (pH 8.4) containing 1 U/mL human thrombin, and 2 mM substrate (Daiichi Chemical S-2238) were added and incubated for 30 min., 50μL of 50% acetic acid was added, and the absorbance (A405) were determined. As, a blank, Tris buffer was added instead of thrombin while as a control, water is added instead of the specimen. The 50% inhibition activity (IC50) was determined as the indication of thrombin inhibiting activity.

normal human plasma = assay: Determination of anticoagulation activity (APTT); format: biochemical; settings: concentration corresponding to 2-fold elongation of coagulation time
Description: (3) Determination of Anticoagulation Activity (APTT):
To 100 μL of normal human plasma (Ci-Trol®) manufactured by DADE, 100 μL of the specimen was added, and incubated at 37° C. for 1 minute. To this solution, 100 μL of APTT reagent (manufactured by DADE) which was, retained at 37° C. was added, and after incubating at 37° C. for 2 minutes, 100 μL of 25 mM calcium chloride solution was added, and the coagulation time was determined using the coagulation measurement apparatus manufactured by AMELUNG. The coagulation time when physiological salt solution was added instead of the analyte is used as a control, the concentration of the specimen corresponding to the 2-fold elongation of this coagulation time (CT2) is calculated, and this value is used as,the indication of the anticoagulation activity.

T1 sequence (P22303 32-617 isoform P22303-2 limits assumed): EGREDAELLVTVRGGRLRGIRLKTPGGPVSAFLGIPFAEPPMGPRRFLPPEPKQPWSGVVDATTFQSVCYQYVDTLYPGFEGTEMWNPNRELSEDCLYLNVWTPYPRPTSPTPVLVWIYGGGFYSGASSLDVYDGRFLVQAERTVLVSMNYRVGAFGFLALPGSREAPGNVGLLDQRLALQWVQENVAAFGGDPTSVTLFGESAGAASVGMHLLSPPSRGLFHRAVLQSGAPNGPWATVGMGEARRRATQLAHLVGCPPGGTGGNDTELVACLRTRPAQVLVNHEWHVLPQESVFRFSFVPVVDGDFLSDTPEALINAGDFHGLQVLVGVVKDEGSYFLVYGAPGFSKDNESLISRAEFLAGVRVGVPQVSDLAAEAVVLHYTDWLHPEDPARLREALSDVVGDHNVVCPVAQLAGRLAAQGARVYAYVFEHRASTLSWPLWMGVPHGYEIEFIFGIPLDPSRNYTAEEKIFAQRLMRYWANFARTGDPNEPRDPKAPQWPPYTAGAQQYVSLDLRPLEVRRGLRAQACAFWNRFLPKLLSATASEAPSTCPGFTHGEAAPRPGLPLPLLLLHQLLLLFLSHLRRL
human FXa, sequence (P00742 235-488 limits assumed): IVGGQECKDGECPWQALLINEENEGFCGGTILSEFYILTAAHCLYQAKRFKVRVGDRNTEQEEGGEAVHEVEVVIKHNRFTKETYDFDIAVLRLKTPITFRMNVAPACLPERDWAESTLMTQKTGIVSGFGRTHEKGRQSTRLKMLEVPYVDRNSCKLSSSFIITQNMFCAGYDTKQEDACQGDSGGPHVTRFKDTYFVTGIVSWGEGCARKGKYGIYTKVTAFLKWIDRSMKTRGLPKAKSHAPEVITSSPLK
human FXa, sequence (P00742 41-179 partner limits assumed): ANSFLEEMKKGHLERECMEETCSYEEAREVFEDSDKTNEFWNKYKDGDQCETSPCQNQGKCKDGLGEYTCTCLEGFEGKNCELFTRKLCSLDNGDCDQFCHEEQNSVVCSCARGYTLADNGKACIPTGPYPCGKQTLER

| Compound | IC50 [1] | Mouse BA [2] | IC50 (human FXa) | IC50 (human thrombin) | APTT CT2 (normal human plasma) |
| --- | --- | --- | --- | --- | --- |
| CC(=N)N1CCC(COCc2cc(C(=O)O)cc(-c3cccc(C(=N)N)c3)c2)CC1 [Example 61, 3-(3-Amidinophenyl)-5-[(1-acetoimidoyl-4-piperidinyl)methoxymethyl]benzoic Acid.hydrochloride] | 49 µM | 10% | 0.063 µM | > 1000 µM | 0.76 µM |
| CC(=N)N1CCC(CNCc2cc(C(=O)O)cc(-c3cccc(C(=N)N)c3)c2)CC1 [Example 70] | 140 µM | 11% | 0.19 µM | > 1000 µM | 2.0 µM |
| N=C(N)c1cccc(-c2cc(CNCC3CCN(CCO)CC3)cc(C(=O)O)c2)c1 [Example 72] | > 250 µM | 13% | 1.2 µM | > 1000 µM | 11 µM |
| N=C(N)c1cccc(-c2cc(CNCC3CCCCC3)cc(C(=O)O)c2)c1 [Example 73] | > 250 µM |  | 1.7 µM | > 1000 µM | 13 µM |
| CC(=N)N1CCC(CN(C)Cc2cc(C(=O)O)cc(-c3cccc(C(=N)N)c3)c2)CC1 [Example 74] | 150 µM | 13% | 0.59 µM | > 1000 µM | 5.4 µM |
| CC(=N)N1CCC(CN(CCO)Cc2cc(C(=O)O)cc(-c3cccc(C(=N)N)c3)c2)CC1 [Example 81] | 130 µM | 7% | 0.21 µM | 820 µM | 2.8 µM |
| CC(=N)N1CCC(COCc2cc(CCC(=O)O)cc(-c3cccc(C(=N)N)c3)c2)CC1 [Example 82] | 170 µM | 11% | 0.13 µM | > 1000 µM | 1.9 µM |
